Experimental data as given in the NIST ThermoML archive (doi:10.1021/acs.jced.9b00218).
Numbers after ± are expanded uncertainties.

Legend:
[1] = wn = mass fraction of the nth substance listed; conditions: 298.15 K, 100 kPa, Liquid, Vibrating tube method
[2] = refractive index (Na D-line) (dimensionless); wn = mass fraction of the nth substance listed; conditions: 298.15 K, 100 kPa, Liquid, Standard Abbe refractometry

With `O=B[O-].[Li+]` [lithium metaborate] + O the mass density ([1]; w1 = 0.0336) was 1035.63 ± 12 kg/m3 and the refractive index ([2]; w1 = 0.0336) was 1.3448 ± 0.002.
Work on `O=B[O-].[K+]` [potassium metaborate] + O yielded a mass density ([1]; w1 = 0.4388) of 1539.08 ± 12 kg/m3 and a refractive index ([2]; w1 = 0.4388) of 1.42543 ± 0.002.
`O=B[O-].[Na+]` [sodium metaborate] + O gave a mass density ([1]; w1 = 0.2259) of 1280.56 ± 12 kg/m3 and a refractive index ([2]; w1 = 0.2259) of 1.38898 ± 0.002.
